According to patent US20110318393A1, “Substituted Pyrazole Compounds” (MIIKANA THERAPEUTICS, INC., priority 2008, published 2011):
pIC50: −log10 of the molar value.

What was measured:
HCT-116 cell growth = assay: Whole cell cytotoxicity assay: Sulforhodamine B; type: cell-based; conditions: Homo sapiens, HCT116, 96 hours, SRB staining, less than or equal to 100 nM
Procedure: Human tumor-derived cell lines, HCT116 or MCF7 (ATCC) were plated in a 96 well plate in DMEM containing 10% fetal bovine serum and 2 mM L-glutamine at a density of 500 HCT116 cells or 1,000 MCF7 cells per well and incubated at 37° C., 5% CO2, for 24 hours prior to the addition of experimental compounds. Compounds were added using the dilution series indicated to duplicate plates and the cells were incubated in media plus compound for 96 hours. An additional plate was fixed in 10% TCA at the time of the addition of compound to provide a measurement of the cell population at time zero, the time of drug addition. […] The absorbance was read at 570 nm. Percentage growth was calculated using the absorbance readings from the time zero plate (Tz) and the dilution series plate […] which included a column of cells grown in media without compound as a control (C) using the formulas: […]
Three dose response parameters were calculated for each experimental agent. […] The drug concentration resulting in total growth inhibition (TGI) was calculated from Ti=Tz. […] Values are calculated for each of these three parameters if the level of activity was reached; however, if the effect was not reached or was exceeded, the value for that parameter is expressed as greater or less than the maximum or minimum concentration tested.

recombinant Aurora A = target: T1, recombinant Aurora A (Homo sapiens, UniProt O14965); assay: Aurora A (Aurora 2) inhibition assay, Z'-Lyte kinase assay; type: biochemical; conditions: ATP 10 μM, 1 h; less than or equal to 100 nM
T1 construct: purchased Upstate, Lake Placid, N.Y
T1 sequence (O14965 1-403): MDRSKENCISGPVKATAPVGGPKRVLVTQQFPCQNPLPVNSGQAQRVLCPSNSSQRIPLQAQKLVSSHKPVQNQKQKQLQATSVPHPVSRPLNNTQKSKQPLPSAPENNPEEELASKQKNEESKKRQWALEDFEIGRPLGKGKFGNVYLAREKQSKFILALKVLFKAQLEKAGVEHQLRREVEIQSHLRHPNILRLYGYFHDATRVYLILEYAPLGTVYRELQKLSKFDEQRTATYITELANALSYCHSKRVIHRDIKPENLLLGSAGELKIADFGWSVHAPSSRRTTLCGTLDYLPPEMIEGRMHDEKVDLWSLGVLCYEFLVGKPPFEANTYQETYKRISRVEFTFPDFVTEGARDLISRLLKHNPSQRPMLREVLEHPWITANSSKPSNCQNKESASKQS
Procedure: Compounds were tested for their potency against recombinant Aurora A (Upstate, Lake Placid, N.Y.) using the PanVera Z′-Lyte kinase assay kit-Ser/Thr 1 peptide (Invitrogen, Carlsbad, Calif.). Assays were carried out in kinase assay buffer (50 mM HEPES, pH 7.5, 10 mM MgCl2, 5 mM EGTA, 0.05% Brij-35, 2 mM DTT). Test compounds were initially dissolved in DMSO at 100× the highest tested concentration, then serially diluted to 4× test concentrations in kinase assay buffer. Next, Aurora A (final concentration 200-500 ng/mL), Z′-Lyte Ser/Thr 1 peptide (final concentration 2 μM) and ATP (final concentration 10 μM) were added according to the manufacturer's instructions. Assays were carried out in half-area 96-well white polystyrene assay plates (Corning, Corning, N.Y.) in a final volume of 20 μl. The reaction was allowed to proceed for 1 h at room temperature in the dark, at which point the development reagent and stop reagent were added according to the manufacturer's instructions. Coumarin (Ex. 400 nm, Em. 465 nm) and fluorescein (Ex. 400 nm, Em. 565 nm) fluorescence values were measured on a SpectraFluor Plus plate reader (Tecan, Durham, N.C.). The emission ratio (coumarin/fluorescein) was determined and used to calculate the percent phosphorylation for each well. Wells containing substrate but no kinase and wells containing a phosphopeptide control were used to set 0% and 100% phosphorylation values, respectively. Typically 20-40% of the substrate was phosphorylated in wells without inhibitor. Dose-response curves of relative Aurora A activity vs. inhibitor concentration were plotted with Grafit (Erithacus Software, Horley, Surrey, UK).

| pIC50 (recombinant Aurora A) | SMILES | pIC50 (HCT-116 cell growth) |
| --- | --- | --- |
| ≥ 7.00 | Cc1cc(Nc2cc(N3CCN(c4ccncc4)CC3)nc(/C=C/c3ccccc3)n2)n[nH]1 [Compound 22, (E)-N-(5-methyl-1H-pyrazol-3-yl)-6-(4-(pyridin-4-yl)piperazin-1-yl)-2-styrylpyrimidin-4-amine] | ≥ 7.00 |
| ≥ 7.00 | Cc1cc(Nc2cc(N3CCC(N4CCCCC4)CC3)nc(/C=C/c3ccccc3)n2)n[nH]1 [Compound 5, (E)-6-(1,4′-bipiperidin-1′-yl)-N-(5-methyl-1H-pyrazol-3-yl)-2-styrylpyrimidin-4-amine] | ≥ 7.00 |
